The target of assay [1] is T1, AChE (Homo sapiens, UniProt P22303).
T1 construct: purchased Sigma-Aldrich
The assay is described as follows: biochemical. The conditions noted are these: five concentrations 256 μM to 16 μM, triplicate, pH 8.0 buffer.
Method: AChE inhibition was assessed on a Varioskan Lux 96-well plate reader. […] The IC50 values were determined using TableCurve 2Dv4 software.

Assay [2] concerns the target T2, BACE1 (Homo sapiens, UniProt P56817).
T2 construct: purchased Beyotime Biotech
Briefly: BACE1 Inhibitor Screening Kit (FRET substrate). The format is biochemical. The conditions noted are these: 200 μM compound.
Method: Briefly, BACE1 was incubated with various concentrations of compounds for 5 min at 37 °C in a black 96-well plate, followed by adding a specific fluorescence resonance energy transfer (FRET) substrate into the reaction mixture. […] The inhibitory percentage of BACE1 activity was calculated as following: I(%) = (ΔFIcontrol − ΔFIcompound) × 100/ΔFIcontrol, in which ΔFI denotes the change of fluorescent intensity per min. The inhibitory activity of compounds was initially screened at a fixed concentration of 200 μM.

T1 sequence (P22303 32-614): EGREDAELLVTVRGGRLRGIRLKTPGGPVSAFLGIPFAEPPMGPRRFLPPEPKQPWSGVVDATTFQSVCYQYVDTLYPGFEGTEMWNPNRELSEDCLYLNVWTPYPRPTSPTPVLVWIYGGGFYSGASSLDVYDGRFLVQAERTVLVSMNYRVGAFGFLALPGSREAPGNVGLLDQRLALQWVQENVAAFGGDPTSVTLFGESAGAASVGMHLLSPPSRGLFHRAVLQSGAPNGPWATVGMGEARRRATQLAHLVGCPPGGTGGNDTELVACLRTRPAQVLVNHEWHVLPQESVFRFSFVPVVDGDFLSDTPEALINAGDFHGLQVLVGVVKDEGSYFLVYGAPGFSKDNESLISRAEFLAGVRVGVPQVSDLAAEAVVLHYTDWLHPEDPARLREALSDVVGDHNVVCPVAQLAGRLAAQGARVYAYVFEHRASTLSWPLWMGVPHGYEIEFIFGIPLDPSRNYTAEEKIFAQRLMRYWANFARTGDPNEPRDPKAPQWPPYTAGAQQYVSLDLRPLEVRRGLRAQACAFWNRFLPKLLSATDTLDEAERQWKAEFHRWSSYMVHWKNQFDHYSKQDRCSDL
T2 sequence (P56817 46-501, species assumed): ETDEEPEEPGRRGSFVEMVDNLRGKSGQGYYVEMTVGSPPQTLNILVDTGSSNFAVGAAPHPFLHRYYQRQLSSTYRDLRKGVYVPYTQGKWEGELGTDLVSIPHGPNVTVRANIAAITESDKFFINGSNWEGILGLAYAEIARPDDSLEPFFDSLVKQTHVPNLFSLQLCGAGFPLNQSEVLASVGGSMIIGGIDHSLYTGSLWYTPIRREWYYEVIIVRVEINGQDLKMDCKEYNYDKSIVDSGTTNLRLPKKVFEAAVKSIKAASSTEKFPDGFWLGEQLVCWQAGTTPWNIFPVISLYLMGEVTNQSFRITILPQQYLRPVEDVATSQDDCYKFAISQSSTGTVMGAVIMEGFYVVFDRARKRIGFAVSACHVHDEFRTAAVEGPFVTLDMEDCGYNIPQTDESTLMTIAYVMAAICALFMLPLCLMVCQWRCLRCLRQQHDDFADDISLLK

For `Cn1c(=O)c2c(ncn2Cc2nnn(CCCCC(=O)Nc3ccccc3)n2)n(C)c1=O` [Compound 11], in assay [1], the IC50 was determined as 110 ± 17.5 µM. Also, the inhibition at 200 µM in assay [2] is -0.32 ± 2.05%.
Taken in the same sequence, the figures for `Cn1c(=O)c2c(ncn2Cc2nnn(CCCCCC(=O)Nc3cccc(Cl)c3)n2)n(C)c1=O` [Compound 14] were 153 ± 45 µM and -2.01 ± 0.83%.
On the same counts, the results for `Cn1c(=O)c2c(ncn2Cc2nnn(CCCCC(=O)Nc3ccc(I)cc3F)n2)n(C)c1=O` [Compound 12] are 15.68 ± 0.06 µM and 18.2 ± 3.9%.
Taken in the same sequence, the figures for `Cn1c(=O)c2c(ncn2Cc2nnn(CCCCCCC(=O)Nc3ccc(Br)cc3)n2)n(C)c1=O` [Compound 22] were 63.5 ± 2.48 µM and 1.56 ± 3.43%.
`COc1ccc(OC(=O)CCCCCCn2nnc(Cn3cnc4c3c(=O)n(C)c(=O)n4C)n2)cc1` [Compound 24] returned an IC50 in assay [1] of 106 ± 25.7 µM. Besides, the inhibition at 200 µM in assay [2] amounted to 0.74 ± 0.17%.
In turn, `Cn1c(=O)c2c(ncn2Cc2nnnn2CCCCCCC(=O)Nc2ccc(Br)cc2)n(C)c1=O` [Compound 25] had an IC50 in assay [1] of 70.3 ± 0.1 µM. In addition, the inhibition at 200 µM in assay [2] was -0.48 ± 0.76%.
In assay [1], `Cn1c(=O)c2c(ncn2Cc2nnn(CCCCCC(=O)Nc3ccc(F)c(Cl)c3)n2)n(C)c1=O` [Compound 16] gave an IC50 of 115 ± 10.6 µM. The inhibition at 200 µM in assay [2] was -1.54 ± 1.19%.
Taken in the same sequence, the figures for `Cn1c(=O)c2c(ncn2Cc2nnn(CCCCCC(=O)Nc3ccc(I)cc3F)n2)n(C)c1=O` [Compound 17] were 105 ± 12.8 µM and 18.7 ± 2.26%.
Taken in the same sequence, the figures for `Cn1c(=O)c2c(ncn2Cc2nnnn2CCCCCCC(=O)Nc2ccc(I)cc2F)n(C)c1=O` [Compound 27] were 143 ± 23.1 µM and 7.69 ± 0.86%.
Taken in the same sequence, the figures for `Cn1c(=O)c2c(ncn2Cc2nnn(CCCCCCC(=O)Nc3ccc(Cl)cc3)n2)n(C)c1=O` [Compound 21] were 126 ± 22.4 µM and 12.2 ± 0.47%.
`Cn1c(=O)c2c(ncn2Cc2nnn(CCCCCCC(=O)Nc3cccc(Cl)c3)n2)n(C)c1=O` [Compound 20] had an IC50 in assay [1] of 221 ± 37.7 µM. For the same compound, in assay [2], the inhibition at 200 µM is 10.7 ± 0.54%.
On to `Cn1c(=O)c2c(ncn2Cc2nnn(CCCCCC(=O)Nc3ccc(Br)cc3)n2)n(C)c1=O` [Compound 15], for which, in assay [1], the midpoint of inhibition, the IC50, lay at 84.1 ± 20.2 µM. In assay [2], the inhibition at 200 µM is 8.94 ± 1.45%.
On the same counts, the results for `Cn1c(=O)c2c(ncn2Cc2nnn(CCCCCCC(=O)Nc3ccc(F)c(Cl)c3)n2)n(C)c1=O` [Compound 23] are 110 ± 17.2 µM and 12.6 ± 0.45%.
Taken in the same sequence, the figures for `Cn1c(=O)c2c(ncn2Cc2nnn(CCCCCC(=O)Oc3ccccc3)n2)n(C)c1=O` [Compound 18] were 94.4 ± 8.27 µM and 0.07 ± 3.57%.
Taken in the same sequence, the figures for `COc1ccc(OC(=O)CCCCn2nnc(Cn3cnc4c3c(=O)n(C)c(=O)n4C)n2)cc1` [Compound 13] were 303 ± 34.1 µM and 1.4 ± 0.03%.
The compound `COc1ccc(OC(=O)CCCCCn2nnc(Cn3cnc4c3c(=O)n(C)c(=O)n4C)n2)cc1` [Compound 19] gave an IC50 in assay [1] of 267 ± 30.4 µM. The inhibition at 200 µM in assay [2] is -1.23 ± 0.35%.
On the same counts, the results for `Cn1c(=O)c2c(ncn2Cc2nnnn2CCCCCCC(=O)Nc2ccc(F)c(Cl)c2)n(C)c1=O` [Compound 26] are 55.4 ± 18.6 µM and 8.89 ± 0.49%.
